From patent publication US20200024278A1, “COMPOSITION COMPRISING ANTIBIOTIC COMPOUND AND AN HETEROCYCLIC COMPOUND AND THEIR USE IN PREVENTING OR TREATING BACTERIAL INFECTIONS” (MUTABILIS, priority 2016, published 2020) come the findings set out here.

Read-outs that look alike come from different tables or passages of the source.

What all share (test): MIC, broth microdilution (CLSI), substance alone or ATB combined with compound at 4 or 8 μg/mL
In general terms: In broth dilution the organism is exposed to a series of concentrations in liquid medium.

One test deals with SPN 49619. Type of test: cell-based, S. pneumoniae. The settings on record: SPN 49619; for MIC: Streptococcus pneumoniae. How it is done:
(§1) Compounds of the present invention were assessed against genotyped bacterial strains alone or in combination with an antibacterial. In the assays, MICs of said compounds or combination of antibiotics with fixed concentrations of said compounds (4 or 8 μg/mL) were determined by the broth microdilution method according to the Clinical Laboratory Standards Institute (CLSI-M7-A7). Briefly, compounds alone according to the invention were prepared in DMSO and spotted (2 μL each) on sterile polystyrene plates (Corning, 3788). Combinations of compounds and antibiotics dilutions were prepared in DMSO and spotted (1 μL each) on sterile polystyrene plates (Corning, 3788). Log phase bacterial suspensions were adjusted to a final density of 5·10^5 CFU/mL in cation-adjusted Mueller-Hinton broth (ca-MHB; Becton-Dickinson and Company) and added to each well (98 μL). Assays including Fosfomycin were supplemented with 25 μg/ml of Glucose-6-phosphate. Microplates were incubated for 16-20 h at 35° C. in ambient air. The MIC of the compounds was defined as the lowest concentration of said compounds that prevented bacterial growth as read by visual inspection. The MIC of ATB at each compound concentration was defined as the lowest concentration of ATB that prevented bacterial growth as read by visual inspection.

The test system of another test is ECO 190317. Type of test: cell-based, E. coli. As to conditions: Escherichia coli; antibiotic alone; ECO 190317; read-out: MIC ATB alone. As to the method: as §1
Another test has as its system PAE 105250. Type of test: cell-based, P. aeruginosa. The settings on record: Pseudomonas aeruginosa, PAE 105250. How it is done:
as §1

Another test has as its system SAU 29213. In kind it is cell-based, S. aureus. As to conditions: SAU 29213. How it is done:
as §1

Setting [1] is: antibiotic alone, read-out: MIC ATB alone.

In the case of `CCC[C@@H]1C[C@@H](C(=O)N[C@@H]([C@H]2O[C@H](SC)[C@H](O)[C@@H](O)[C@H]2O)[C@H](C)Cl)N(C)C1` [CLI], the “MIC ATB alone” value with SPN 49619 (CLI alone) turned out to be 0.125 µg/mL. The “MIC ATB alone” value with SPN 49619 (antibiotic alone) worked out at 0.125 µg/mL. In the test with SPN 49619, the “MIC ATB combined with Example 1 @8 μg/ml” value is 0.063 µg/mL and the “MIC ATB combined with Example 9 @4 μg/ml” value amounted to 0.0039 µg/mL.
As to `C[C@H]1[C@H](NC(=O)/C(=N\OC(C)(C)C(=O)O)c2csc(N)n2)C(=O)N1S(=O)(=O)O` [ATM, Aztreonam, reference compound], the MIC with ECO 190317 is 128 µg/mL; in the test with PAE 105250 (setting [1]) it was 8 µg/mL; in the test on PAE 105250 (substance alone, read-out: MIC), 8 µg/mL; with SPN 49619 (setting [1]), above 64 µg/mL; in the test on SPN 49619 (substance alone, read-out: MIC), above 64 µg/mL.
`CO[C@H]1/C=C/O[C@@]2(C)Oc3c(C)c(O)c4c(O)c(c(/C=N/N5CCN(C)CC5)c(O)c4c3C2=O)NC(=O)/C(C)=C\C=C\[C@H](C)[C@H](O)[C@@H](C)[C@@H](O)[C@@H](C)[C@H](OC(C)=O)[C@@H]1C` [RIF]: the “MIC ATB alone” value is 0.0078 µg/mL in the test on SAU 29213 (RIF alone), 0.0078 µg/mL in the test with SAU 29213 (antibiotic alone), 0.031 µg/mL in the test on SPN 49619 (RIF alone) and 0.031 µg/mL with SPN 49619 (antibiotic alone). Besides, the “MIC ATB combined with Example 1 @8 μg/ml” value in the test on SAU 29213 stood at 0.0078 µg/mL; in the test on SPN 49619 it was 0.063 µg/mL. Moreover, the “MIC ATB combined with Example 9 @4 μg/ml” value turned out to be 0.002 µg/mL with SAU 29213 and 0.00024 µg/mL in the test on SPN 49619.
Take `CC(=O)NC[C@H]1CN(c2ccc(N3CCOCC3)c(F)c2)C(=O)O1` [LZD]: the “MIC ATB alone” value with SAU 29213 (LZD alone) was determined as 4 µg/mL; in the test on SAU 29213 (antibiotic alone), 4 µg/mL; in the test with SPN 49619 (LZD alone), 1 µg/mL; with SPN 49619 (antibiotic alone), 1 µg/mL. Also, the “MIC ATB combined with Example 1 @8 μg/ml” value with SAU 29213 was 2 µg/mL; with SPN 49619, 1 µg/mL. Also, the “MIC ATB combined with Example 9 @4 μg/ml” value with SAU 29213 was below 0.0078 µg/mL; in the test on SPN 49619, “<=0.0078 μg/mL”.
In the case of `CC[C@H]1OC(=O)[C@H](C)[C@@H](O[C@H]2C[C@@](C)(OC)[C@@H](O)[C@H](C)O2)[C@H](C)[C@@H](O[C@@H]2O[C@H](C)C[C@H](N(C)C)[C@H]2O)[C@](C)(O)C[C@@H](C)C(=O)[C@H](C)[C@@H](O)[C@]1(C)O` [ERY], the “MIC ATB alone” value in the test on SAU 29213 (ERY alone) stood at 1 µg/mL; in the test on SAU 29213 (antibiotic alone), 1 µg/mL; in the test on SPN 49619 (ERY alone), 0.063 µg/mL; in the test with SPN 49619 (antibiotic alone), 0.063 µg/mL. Also, the “MIC ATB combined with Example 1 @8 μg/ml” value in the test with SAU 29213 was determined as 0.25 µg/mL; in the test with SPN 49619, 0.063 µg/mL. Further, the “MIC ATB combined with Example 9 @4 μg/ml” value was “<=0.0020 μg/mL” in the test with SAU 29213 and below 0.0020 µg/mL in the test with SPN 49619.
As to `CN[C@H](CC(C)C)C(=O)N[C@H]1C(=O)N[C@@H](CC(N)=O)C(=O)N[C@H]2C(=O)N[C@H]3C(=O)N[C@H](C(=O)N[C@H](C(=O)O)c4cc(O)cc(O)c4-c4cc3ccc4O)[C@H](O)c3ccc(c(Cl)c3)Oc3cc2cc(c3O[C@@H]2O[C@H](CO)[C@@H](O)[C@H](O)[C@H]2O[C@H]2C[C@](C)(N)[C@H](O)[C@H](C)O2)Oc2ccc(cc2Cl)[C@H]1O` [VAN], the “MIC ATB alone” value in the test with SAU 29213 (antibiotic alone) turned out to be 1 µg/mL; with SAU 29213 (VAN alone), 1 µg/mL; in the test on SPN 49619 (antibiotic alone) it was 0.25 µg/mL; in the test on SPN 49619 (VAN alone) it was 0.25 µg/mL. Besides, the “MIC ATB combined with Example 1 @8 μg/ml” value in the test on SAU 29213 is 1 µg/mL; in the test with SPN 49619, 0.25 µg/mL. Also, the “MIC ATB combined with Example 9 @4 μg/ml” value with SAU 29213 and in the test with SPN 49619 was below 0.0039 µg/mL in each case.

Broadly, the MIC is the smallest concentration in the dilution series that meets the test's criterion for growth inhibition.
